Data taken from publication PMC12267109, “The enzyme kinetics of branched‐chain fatty acid synthesis of metazoan fatty acid synthase” (Protein Science : A Publication of the Protein Society, 2025).

Key:
[1] = molecular target: T1, metazoan fatty acid synthase (mFAS), murine FAS (Mus musculus, UniProt P19096); assay: NADPH consumption assay with purified mFAS; GC-MS of methyl-branched fatty acid products; type: biochemical
T1 construct: gene Fasn; full length mFAS

[2] = molecular target: T1, metazoan fatty acid synthase (mFAS), murine FAS; assay: NADPH consumption by purified mFAS, fluorescence; type: biochemical

T1 sequence (P19096 whole entry): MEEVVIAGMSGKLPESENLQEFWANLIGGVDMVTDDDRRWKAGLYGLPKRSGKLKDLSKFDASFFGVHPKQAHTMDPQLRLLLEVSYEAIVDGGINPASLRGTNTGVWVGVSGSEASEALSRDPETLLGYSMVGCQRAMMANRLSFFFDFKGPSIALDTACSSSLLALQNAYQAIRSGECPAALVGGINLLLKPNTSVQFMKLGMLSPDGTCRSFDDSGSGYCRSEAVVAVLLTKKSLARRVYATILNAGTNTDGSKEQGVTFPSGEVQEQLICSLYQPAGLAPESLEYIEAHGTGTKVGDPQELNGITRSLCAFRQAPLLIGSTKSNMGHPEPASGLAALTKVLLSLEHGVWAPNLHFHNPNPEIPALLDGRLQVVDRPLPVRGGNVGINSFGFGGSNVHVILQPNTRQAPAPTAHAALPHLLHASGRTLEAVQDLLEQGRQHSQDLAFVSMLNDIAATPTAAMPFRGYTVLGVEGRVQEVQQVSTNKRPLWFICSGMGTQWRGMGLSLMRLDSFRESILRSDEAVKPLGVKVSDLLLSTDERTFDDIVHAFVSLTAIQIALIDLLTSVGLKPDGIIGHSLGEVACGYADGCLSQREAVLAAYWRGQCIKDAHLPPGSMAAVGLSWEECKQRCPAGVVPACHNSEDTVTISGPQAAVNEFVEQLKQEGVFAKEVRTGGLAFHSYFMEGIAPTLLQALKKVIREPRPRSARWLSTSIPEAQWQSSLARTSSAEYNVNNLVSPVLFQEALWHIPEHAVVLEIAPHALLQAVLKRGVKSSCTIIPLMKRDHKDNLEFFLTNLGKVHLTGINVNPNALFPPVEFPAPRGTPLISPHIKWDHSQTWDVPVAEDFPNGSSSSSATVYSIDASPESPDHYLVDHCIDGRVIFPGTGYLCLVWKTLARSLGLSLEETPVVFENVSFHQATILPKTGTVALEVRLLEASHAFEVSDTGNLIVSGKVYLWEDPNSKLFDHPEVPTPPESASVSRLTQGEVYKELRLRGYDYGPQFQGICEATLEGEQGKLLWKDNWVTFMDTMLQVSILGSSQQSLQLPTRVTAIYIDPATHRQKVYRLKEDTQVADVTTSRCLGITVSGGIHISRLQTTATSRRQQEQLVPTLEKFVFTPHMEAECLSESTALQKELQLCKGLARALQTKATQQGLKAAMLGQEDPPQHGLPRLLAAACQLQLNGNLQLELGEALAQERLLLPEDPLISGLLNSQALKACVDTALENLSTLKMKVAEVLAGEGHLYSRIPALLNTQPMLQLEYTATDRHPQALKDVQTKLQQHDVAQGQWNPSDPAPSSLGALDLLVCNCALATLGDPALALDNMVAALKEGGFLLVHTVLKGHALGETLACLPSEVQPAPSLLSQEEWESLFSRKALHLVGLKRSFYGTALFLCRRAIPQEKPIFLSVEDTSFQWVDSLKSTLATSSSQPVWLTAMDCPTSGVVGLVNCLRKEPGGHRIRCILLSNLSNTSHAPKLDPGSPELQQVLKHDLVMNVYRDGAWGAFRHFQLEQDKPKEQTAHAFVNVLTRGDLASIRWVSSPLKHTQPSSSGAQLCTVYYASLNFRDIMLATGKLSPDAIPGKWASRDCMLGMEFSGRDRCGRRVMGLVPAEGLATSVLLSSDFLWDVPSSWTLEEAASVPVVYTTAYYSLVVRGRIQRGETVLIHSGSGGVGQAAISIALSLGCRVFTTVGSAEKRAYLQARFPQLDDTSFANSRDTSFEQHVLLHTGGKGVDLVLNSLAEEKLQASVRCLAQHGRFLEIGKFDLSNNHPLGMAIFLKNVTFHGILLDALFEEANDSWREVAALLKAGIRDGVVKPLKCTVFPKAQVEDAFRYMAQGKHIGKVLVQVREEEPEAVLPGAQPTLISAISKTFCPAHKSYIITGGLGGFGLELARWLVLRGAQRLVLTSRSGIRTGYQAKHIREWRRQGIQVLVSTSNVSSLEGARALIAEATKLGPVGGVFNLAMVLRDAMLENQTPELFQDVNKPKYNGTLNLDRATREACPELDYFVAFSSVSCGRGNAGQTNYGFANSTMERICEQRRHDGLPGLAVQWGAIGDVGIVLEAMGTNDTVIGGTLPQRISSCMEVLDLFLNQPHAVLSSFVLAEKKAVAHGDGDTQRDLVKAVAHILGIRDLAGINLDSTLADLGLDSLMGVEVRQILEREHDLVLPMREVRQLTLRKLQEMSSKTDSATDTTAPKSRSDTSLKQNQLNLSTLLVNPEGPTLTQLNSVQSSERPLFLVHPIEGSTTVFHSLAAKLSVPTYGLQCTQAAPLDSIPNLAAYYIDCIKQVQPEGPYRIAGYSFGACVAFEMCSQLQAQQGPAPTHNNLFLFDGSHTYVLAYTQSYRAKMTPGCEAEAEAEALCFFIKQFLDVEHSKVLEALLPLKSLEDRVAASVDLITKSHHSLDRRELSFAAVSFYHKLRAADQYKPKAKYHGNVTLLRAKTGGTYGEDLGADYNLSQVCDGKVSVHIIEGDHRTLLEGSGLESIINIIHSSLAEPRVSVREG

SMILES | NADPH consumption assay with purified mFAS; GC-MS of methyl-branched fatty acid [1] | NADPH consumption by purified mFAS, fluorescence [2]
CC(C(=O)O)C(=O)SCCNC(=O)CCNC(=O)[C@H](O)C(C)(C)COP(=O)(O)OP(=O)(O)OC[C@H]1O[C@@H](n2cnc3c(N)ncnc32)[C@H](O)[C@@H]1OP(=O)(O)O (mixture of isomers) [methylmalonyl-CoA] | we observed increasing activity with increasing metmal‐CoA in the absence of starter substrates | –
NC(=O)C1=CN([C@@H]2O[C@H](COP(=O)(O)OP(=O)(O)OC[C@H]3O[C@@H](n4cnc5c(N)ncnc54)[C@H](OP(=O)(O)O)[C@@H]3O)[C@@H](O)[C@H]2O)C=CC1 [NADPH] | – | (NADPH) consumption of the integrated β‐ketoacyl reductase and enoyl reductase domains
